Results taken from the NIST ThermoML archive (doi:10.1016/j.tca.2015.01.022).

What was measured:
[1] = for molar entropy: 101.33 kPa, Small (less than 1 g) adiabatic calorimetry
[2] = Molar enthalpy of transition or fusion; details: Crystal; Adiabatic calorimetry

CCCCn1cc[n+](C)c1.F[B-](F)(F)F [1-butyl-3-methylimidazolium tetrafluoroborate]
Details	Glass transition temperature [°C]
[1], Glass, Adiabatic calorimetry	-92

CCOS(=O)(=O)[O-].CCn1cc[n+](C)c1 [1-ethyl-3-methylimidazolium ethyl sulfate]
Details	Glass transition temperature [°C]
[1], Glass, Adiabatic calorimetry	-88

CCCCCCCC[n+]1ccn(C)c1.F[B-](F)(F)F [1-methyl-3-octylimidazolium tetrafluoroborate]
[1]
Details	Glass transition temperature [°C]	Triple point temperature [K]	molar entropy [J/K/mol]
0 K, Glass	–	–	13.9
5 K, Crystal	–	–	0.507
5 K, Glass	–	–	14.5
10 K, Crystal	–	–	3.61
10 K, Glass	–	–	18
15 K, Crystal	–	–	9.69
15 K, Glass	–	–	24.5
20 K, Crystal	–	–	17.96
20 K, Glass	–	–	33.1
25 K, Crystal	–	–	27.66
25 K, Glass	–	–	43.1
30 K, Crystal	–	–	38.29
30 K, Glass	–	–	54.1
35 K, Crystal	–	–	49.44
35 K, Glass	–	–	65.5
40 K, Crystal	–	–	60.82
40 K, Glass	–	–	77.1
45 K, Crystal	–	–	72.28
45 K, Glass	–	–	88.7
50 K, Crystal	–	–	83.73
50 K, Glass	–	–	100.3
60 K, Crystal	–	–	106.3
60 K, Glass	–	–	123.1
70 K, Crystal	–	–	128.1
70 K, Glass	–	–	145.2
80 K, Crystal	–	–	149.2
80 K, Glass	–	–	166.7
90 K, Crystal	–	–	169.5
90 K, Glass	–	–	187.6
100 K, Crystal	–	–	189.1
100 K, Glass	–	–	207.9
110 K, Crystal	–	–	208
110 K, Glass	–	–	227.7
120 K, Crystal	–	–	226.3
120 K, Glass	–	–	247
130 K, Crystal	–	–	244.2
130 K, Glass	–	–	265.9
140 K, Crystal	–	–	261.5
140 K, Glass	–	–	284.4
150 K, Crystal	–	–	278.4
150 K, Glass	–	–	302.8
160 K, Crystal	–	–	295
160 K, Glass	–	–	320.9
170 K, Crystal	–	–	311.3
170 K, Glass	–	–	338.9
180 K, Crystal	–	–	327.5
180 K, Glass	–	–	356.9
190 K, Crystal	–	–	343.6
190 K, Glass	–	–	375.5
200 K, Crystal	–	–	359.6
200 K, Liquid	–	–	398.7
210 K, Crystal	–	–	375.6
210 K, Liquid	–	–	421.4
220 K, Crystal	–	–	391.5
220 K, Liquid	–	–	442.9
230 K, Crystal	–	–	407.4
230 K, Liquid	–	–	463.6
240 K, Crystal	–	–	423.2
240 K, Liquid	–	–	483.5
245.81 K, Crystal	–	–	432.4
245.81 K, Liquid	–	–	494.7
250 K, Liquid	–	–	502.7
260 K, Liquid	–	–	521.3
270 K, Liquid	–	–	539.4
280 K, Liquid	–	–	557
290 K, Liquid	–	–	574.3
298.15 K, Liquid	–	–	588
300 K, Liquid	–	–	591.1
310 K, Liquid	–	–	607.5
320 K, Liquid	–	–	623.7
330 K, Liquid	–	–	639.5
340 K, Liquid	–	–	655
350 K, Liquid	–	–	670.3
360 K, Liquid	–	–	685.3
370 K, Liquid	–	–	700.1
Crystal, Adiabatic calorimetry	–	245.81	–
Glass, Adiabatic calorimetry	-83	–	–

Details	Molar enthalpy of transition or fusion [kcal/mol]
[2]	3.659
